Assay results: the supplement of paper PMC11451515

Tested on: P12-Ichikawa
Test: cell viability relative to DMSO control; higher = less cytotoxic
Conditions: 48 h
Outline: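 Viability is expressed as a percentage of DMSO wells within each plate, and cell-free wells serve as background. Seeding densities in the 1536-well plates (5 μl) were 500 cells/well for NOMO1 or SEM leukemia cells and 1000 cells/well for P12-Ichikawa. Each line was adapted for at least four passages in each medium. Library compounds in DMSO were pin-dosed at 47 μM to 0.79 nM (11 points, threefold), and CellTiter-Glo One luminescence was read after 48 h at 37°C.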

[1] = HPLM + 10% dialyzed FBS, 0.000781 µM
[2] = HPLM + 10% dialyzed FBS, 0.00234 µM
[3] = HPLM + 10% dialyzed FBS, 0.00702 µM
[4] = HPLM + 10% dialyzed FBS, 0.0211 µM
[5] = HPLM + 10% dialyzed FBS, 0.0632 µM
[6] = HPLM + 10% dialyzed FBS, 0.19 µM
[7] = HPLM + 10% dialyzed FBS, 0.569 µM
[8] = HPLM + 10% dialyzed FBS, 1.71 µM
[9] = HPLM + 10% dialyzed FBS, 5.12 µM
[10] = HPLM + 10% dialyzed FBS, 15.4 µM
[11] = HPLM + 10% dialyzed FBS, 46.1 µM
[12] = RPMI 5 mM glucose + 10% FBS, 0.000781 µM
[13] = RPMI 5 mM glucose + 10% FBS, 0.00234 µM
[14] = RPMI 5 mM glucose + 10% FBS, 0.00702 µM
[15] = RPMI 5 mM glucose + 10% FBS, 0.0211 µM
[16] = RPMI 5 mM glucose + 10% FBS, 0.0632 µM
[17] = RPMI 5 mM glucose + 10% FBS, 0.19 µM
[18] = RPMI 5 mM glucose + 10% FBS, 0.569 µM
[19] = RPMI 5 mM glucose + 10% FBS, 1.71 µM
[20] = RPMI 5 mM glucose + 10% FBS, 5.12 µM
[21] = RPMI 5 mM glucose + 10% FBS, 15.4 µM
[22] = RPMI 5 mM glucose + 10% FBS, 46.1 µM
[23] = RPMI 5 mM glucose + 10% dialyzed FBS, 0.000781 µM
[24] = RPMI 5 mM glucose + 10% dialyzed FBS, 0.00234 µM
[25] = RPMI 5 mM glucose + 10% dialyzed FBS, 0.00702 µM
[26] = RPMI 5 mM glucose + 10% dialyzed FBS, 0.0211 µM
[27] = RPMI 5 mM glucose + 10% dialyzed FBS, 0.0632 µM
[28] = RPMI 5 mM glucose + 10% dialyzed FBS, 0.19 µM
[29] = RPMI 5 mM glucose + 10% dialyzed FBS, 0.569 µM
[30] = RPMI 5 mM glucose + 10% dialyzed FBS, 1.71 µM
[31] = RPMI 5 mM glucose + 10% dialyzed FBS, 5.12 µM
[32] = RPMI 5 mM glucose + 10% dialyzed FBS, 15.4 µM
[33] = RPMI 5 mM glucose + 10% dialyzed FBS, 46.1 µM

SMILES	cell viability [1] [%]	cell viability [2] [%]	cell viability [3] [%]	cell viability [4] [%]	cell viability [5] [%]	cell viability [6] [%]	cell viability [7] [%]	cell viability [8] [%]	cell viability [9] [%]	cell viability [10] [%]	cell viability [11] [%]	cell viability [12] [%]	cell viability [13] [%]	cell viability [14] [%]	cell viability [15] [%]	cell viability [16] [%]	cell viability [17] [%]	cell viability [18] [%]	cell viability [19] [%]	cell viability [20] [%]	cell viability [21] [%]	cell viability [22] [%]	cell viability [23] [%]	cell viability [24] [%]	cell viability [25] [%]	cell viability [26] [%]	cell viability [27] [%]	cell viability [28] [%]	cell viability [29] [%]	cell viability [30] [%]	cell viability [31] [%]	cell viability [32] [%]	cell viability [33] [%]
CN(C)c1ccc(O)c2c1C[C@H]1C[C@H]3[C@H](N(C)C)C(O)=C(C(N)=O)C(=O)[C@@]3(O)C(O)=C1C2=O	109	106	105	97.4	107	110	103	99.9	104	91.2	106	113	110	101	100	112	103	101	95.2	88.5	94.9	93.9	110	116	112	118	118	95.6	86.2	81.7	82.5	92.6	98.8
CC(C)(C)c1cc(NC(=O)Nc2ccc(-c3cn4c(n3)sc3cc(OCCN5CCOCC5)ccc34)cc2)no1	88.7	99.1	97.4	108	95.3	99.4	104	101	94.4	101	91	83.8	89.9	88.1	89.2	86	88.9	86.4	82.5	82.6	80.3	85.6	93.4	91.6	93.1	88.9	96.6	92.1	101	92.4	87.7	93.8	88.5
CCC1(C)CC(=O)NC1=O (stereo not drawn)	101	103	104	104	108	116	100	102	94.9	96.7	94.7	99.4	105	115	101	111	105	102	99.3	106	92	87.4	101	101	101	97.3	104	104	102	96.3	96.3	97.1	88.9
C[C@](O)(COc1ccc(C#N)cc1)C(=O)Nc1ccc(C#N)c(C(F)(F)F)c1	85.2	81.8	93	94.8	99.2	93.2	102	93.9	89.7	94.6	95.3	77.6	84.4	84.3	94.1	83.8	92.2	89	86.7	83.9	91	80.5	80.9	82.6	78.6	81.6	83.6	76.1	82.4	80.7	77.5	82.1	68.8
O=NN(CCCl)C(=O)NCCCl	87	94.8	108	103	103	114	100	101	102	104	95.2	83.3	97.9	100	96.3	109	100	97.2	93.6	103	99.3	98.6	87	95.8	104	99.7	106	99.7	94.6	100	97.2	102	100
Cl.Cl.Cl.O[C@@H](COc1cccc2ncccc12)CN1CCN([C@@H]2c3ccccc3[C@@H]3[C@H](c4ccccc42)C3(F)F)CC1	94.8	94.5	88.4	89.7	90.5	92.9	84	83.8	81.8	84.5	79.3	89.1	79.1	77.9	84	88.5	87	71	81.6	78.4	79.8	84.6	91.8	84.3	86.3	86.7	81.6	84.6	84.4	77.8	78.6	78.4	76.3
CC(C)OC(=O)OCOP(=O)(CO[C@H](C)Cn1cnc2c(N)ncnc21)OCOC(=O)OC(C)C.O=C(O)C=CC(=O)O	110	120	73.1	125	127	125	125	128	129	126	106	105	132	70.9	122	124	122	135	129	129	115	4.8	97.6	109	85.9	115	122	124	124	124	128	121	95.2
CC(NC1=CC=CC=C1)C\2=C\C(=C/N3C(=O)\C=C(/N=C23)N4CCOCC4)C (stereo not drawn)	101	100	107	110	109	110	115	115	110	106	101	95.9	98	97.4	98.1	102	110	115	113	101	112	102	88.6	93.6	114	110	99.1	115	110	116	105	106	111
CCCCCCCCCCCCCCCCCCCCCCO	122	125	118	125	126	126	132	133	127	137	140	–	–	–	–	–	–	–	–	–	–	–	–	–	–	–	–	–	–	–	–	–	–
CN(C)CCOc1cc(-c2cn[nH]c2)ccc1NC(=O)C1COc2ccccc2O1 (stereo not drawn)	105	112	103	107	114	117	110	104	98.7	95.3	95.3	107	113	115	112	117	118	128	113	107	88.8	84.1	105	122	123	116	122	125	128	118	109	95.8	97.2
COC1=NC(=NC(=C1N\C2=N\CCN2)Cl)C	87	90	83.9	98.2	94.8	94.1	93.4	95	93.9	103	109	84.1	95.6	88.3	95.3	100	94.9	101	95.5	82.6	93.4	107	83.3	91.6	83.6	95.1	89.6	87.7	91.4	88.6	84.5	94	87.5
CCC(C)SSc1ncc[nH]1 (stereo not drawn)	91.9	99.9	97.1	105	98.2	103	94.9	111	101	69.5	10.6	92.8	102	91.1	90	96.1	95	93.8	98.1	99.7	62.1	6.08	92	91.4	93.5	90.4	90.1	95.8	89.9	97.6	92	34.8	5.7
CCC[C@H](NC(=O)/C(C#N)=C/c1cccc(Br)n1)c1ccccc1	122	121	121	102	124	121	113	113	112	103	6.91	130	122	122	111	120	116	128	122	111	103	5.26	116	131	125	114	114	121	121	121	107	94.4	5.69
COC1=C(N2CCNC(C)C2)C(=CC3=C1N(\C=C(C(O)=O)/C3=O)C4CC4)F (stereo not drawn)	101	105	112	101	91.1	111	106	106	98.1	101	87.5	102	105	108	99.6	88.2	105	100	106	17.8	96.7	76.9	94.5	101	99.2	104	95.8	98.1	99.9	104	101	99.8	78.6
O=C(NCC[S+](=O)([O-])c1ccc(C(F)(F)F)cn1)c1ccc(Cl)cc1	115	116	121	115	118	117	115	117	110	112	108	117	124	118	127	117	115	111	107	119	107	109	112	126	121	121	120	116	115	103	115	102	102
